Results published in patent US20050197350A1, “Novel quinoline, tetrahydroquinazoline, and pyrimidine derivatives and methods of treatment related to the use thereof” (TAISHO PHARMACEUTICAL CO., LTD., priority 2003, published 2005).

What follows are compounds tested on MCH receptors (assay: MCH receptor activity class (method not given)). Conditions: not given.

class	Compound
1	Cc1cc(N[C@H]2CC[C@@H](NC(=O)[C@H](O)c3cccc(Cl)c3)CC2)nc2ccccc12 [Example 2555, (2R)-2-(3-chlorophenyl)-2-hydroxy-N-{cis-4-[(4-methylquinolin-2-yl)amino]cyclohexyl}acetamide]

Same assay, conditions: MCH receptor; class by percent of control at 10^-7 M or IC50

Compound	class
CCCNC(=S)N[C@H]1CC[C@@H](Nc2nc3c(c(N(C)C)n2)CCCC3)CC1 [compound 1956]	3 (Class 3 The value of percent of control at 10^−7 M was more than 60% or the value of IC50 was more than 200 nM.)
CN(C)c1cc(N[C@H]2CC[C@@H](NC(=O)OCc3ccccc3)CC2)nc2ccccc12 [compound 55]	3 (Class 3 The value of percent of control at 10^−7 M was more than 60% or the value of IC50 was more than 200 nM.)
CN(C)c1nc(N[C@H]2CC[C@@H](NC(=S)NCc3ccccc3)CC2)nc2c1CCCC2 [compound 1928]	3 (Class 3 The value of percent of control at 10^−7 M was more than 60% or the value of IC50 was more than 200 nM.)
CCCSc1ncccc1C(=O)NC[C@H]1CC[C@@H](Nc2cc(N(C)C)c3ccccc3n2)CC1 [compound 211]	3 (Class 3 The value of percent of control at 10^−7 M was more than 60% or the value of IC50 was more than 200 nM.)

Same assay, conditions: activity class 1-3: percent of control at 10^-7 M or IC50

Compound	class
COC(=O)[C@H](Cc1ccccc1)NC(=O)N[C@H]1CC[C@@H](Nc2nc3c(c(N(C)C)n2)CCCC3)CC1 (relative stereo) [compound 1705]	3 (Class 3 The value of percent of control at 10^−7 M was more than 60% or the value of IC50 was more than 200 nM.)

Same assay, conditions: activity class per percent of control at 10^-7 M or IC50

Compound	class
COc1cccc2cc(C(=O)N[C@H]3CC[C@@H](Nc4nc5c(c(N(C)C)n4)CCCC5)CC3)oc12 [compound 1057]	3 (Class 3 The value of percent of control at 10^−7 M was more than 60% or the value of IC50 was more than 200 nM.)

Same assay, conditions: class 1-3 by percent of control at 10^-7 M or IC50

Compound	class
CN(C)c1nc(N[C@H]2CC[C@@H](NC(=O)c3ccc(Br)cc3)CC2)nc2c1CCCC2 [compound 458]	2 (Class 2: The value of percent of control at 10^−7 M was from 40% to 60% or the value of IC′50 was from 50 nM to 200 nM.)
CN(C)c1nc(N[C@H]2CC[C@@H](NC(=O)c3cc(C(F)(F)F)cc(C(F)(F)F)c3)CC2)nc2c1CCCC2 [compound 514]	1 (Class 1: The value of percent of control at 10^−7 M was less than 40% or the value of IC50 was less than 50 nM.)

Same assay, conditions: class by percent of control at 10^-7 M or IC50

Compound	class
CN(C)c1ccnc(N[C@H]2CC[C@@H](NC(=O)c3ccc(SC(F)(F)F)cc3)CC2)n1 [compound 349]	3 (Class 3 The value of percent of control at 10^−7 M was more than 60% or the value of IC50 was more than 200 nM.)
CN(C)c1ccnc(N[C@H]2CC[C@@H](NC(=O)C(Cc3ccccc3)c3ccccc3)CC2)n1 (relative stereo) [compound 817]	3 (Class 3 The value of percent of control at 10^−7 M was more than 60% or the value of IC50 was more than 200 nM.)
CSc1ccc(NC(=O)N[C@H]2CC[C@@H](Nc3nccc(N(C)C)n3)CC2)cc1 [compound 2185]	3 (Class 3 The value of percent of control at 10^−7 M was more than 60% or the value of IC50 was more than 200 nM.)
CN(C)c1nc(N[C@H]2CC[C@@H](CNC(=O)Nc3cccc(Cl)c3Cl)CC2)nc2c1CCCC2 [compound 2486]	3 (Class 3 The value of percent of control at 10^−7 M was more than 60% or the value of IC50 was more than 200 nM.)
COc1ccc(CCCCNC[C@H]2CC[C@@H](Nc3cc(N(C)C)c4ccccc4n3)CC2)cc1 [compound 1464]	3 (Class 3 The value of percent of control at 10^−7 M was more than 60% or the value of IC50 was more than 200 nM.)
CCN(CC)c1ccc(CNC[C@H]2CC[C@@H](Nc3nccc(N(C)C)n3)CC2)cc1 [compound 1271]	2 (Class 2: The value of percent of control at 10^−7 M was from 40% to 60% or the value of IC′50 was from 50 nM to 200 nM.)
Cc1cc(C)c(NC(=O)N[C@H]2CC[C@@H](Nc3nccc(N(C)C)n3)CC2)c(C)c1 [compound 2187, N-(cis-4-{[4-(dimethylamino)pyrimidin-2-yl]amino}cyclohexyl)-N′-mesitylurea]	2 (Class 2: The value of percent of control at 10^−7 M was from 40% to 60% or the value of IC′50 was from 50 nM to 200 nM.)
CN(C)c1ccnc(N[C@H]2CC[C@@H](NC(=O)CCc3ccc(Cl)c(Cl)c3)CC2)n1 [compound 837]	3 (Class 3 The value of percent of control at 10^−7 M was more than 60% or the value of IC50 was more than 200 nM.)
Cc1cccc(NC(=S)N[C@H]2CC[C@@H](Nc3nc4c(c(N(C)C)n3)CCCC4)CC2)c1C [compound 1779]	3 (Class 3 The value of percent of control at 10^−7 M was more than 60% or the value of IC50 was more than 200 nM.)
CCC(C(=O)NC[C@H]1CC[C@@H](Nc2nc3c(c(N(C)C)n2)CCCC3)CC1)c1ccccc1 (relative stereo) [compound 628]	3 (Class 3 The value of percent of control at 10^−7 M was more than 60% or the value of IC50 was more than 200 nM.)
COc1cccc(OC)c1CN[C@H]1CC[C@@H](Nc2nccc(N(C)C)n2)CC1 [compound 1205]	3 (Class 3 The value of percent of control at 10^−7 M was more than 60% or the value of IC50 was more than 200 nM.)
CC(C)c1cc(Br)c(NC(=O)N[C@H]2CC[C@@H](Nc3cc(N(C)C)c4ccccc4n3)CC2)c(Br)c1 [compound 2162]	3 (Class 3 The value of percent of control at 10^−7 M was more than 60% or the value of IC50 was more than 200 nM.)
CN(C)c1cc(N[C@H]2CC[C@@H](NC[C@@H](COCc3ccccc3)OCc3ccccc3)CC2)nc2ccccc12 [compound 1453]	3 (Class 3 The value of percent of control at 10^−7 M was more than 60% or the value of IC50 was more than 200 nM.)
CN(C)c1nc(N[C@H]2CC[C@@H](NC(=O)NC(C)(C)C)CC2)nc2c1CCCC2 [compound 1810]	3 (Class 3 The value of percent of control at 10^−7 M was more than 60% or the value of IC50 was more than 200 nM.)
CCc1ccc(NC(=O)N[C@H]2CC[C@@H](Nc3nc4c(c(N(C)C)n3)CCCC4)CC2)cc1 [compound 1824]	3 (Class 3 The value of percent of control at 10^−7 M was more than 60% or the value of IC50 was more than 200 nM.)
CCOc1ccc(CNC[C@H]2CC[C@@H](Nc3nc4c(c(N(C)C)n3)CCCC4)CC2)c(OCC)c1 [compound 1412]	1 (Class 1: The value of percent of control at 10^−7 M was less than 40% or the value of IC50 was less than 50 nM.)
COc1ccc(NC(=S)N[C@H]2CC[C@@H](Nc3nccc(N(C)C)n3)CC2)cc1OC [compound 2266]	2 (Class 2: The value of percent of control at 10^−7 M was from 40% to 60% or the value of IC′50 was from 50 nM to 200 nM.)

Same assay, conditions: class by percent of control at 10^−7 M or IC50

Compound	class
Cc1nc(N[C@H]2CC[C@@H](NC(=O)c3cccc(O)n3)CC2)nc(N(C)C)c1C [compound 2863]	3 (Class 3 The value of percent of control at 10^−7 M was more than 60% or the value of IC50 was more than 200 nM.)
Cc1cc(N(C)C)nc(N[C@H]2CC[C@@H](C(=O)NCc3ccc(Cl)cc3Cl)CC2)n1 [compound 2807, cis-N-(2,4-dichlorobenzyl)-4-{[4-(dimethylamino)-6-methylpyrimidin-2-yl]amino}cyclohexanecarboxamide]	1 (Class 1: The value of percent of control at 10^−7 M was less than 40% or the value of IC50 was less than 50 nM.)
Cc1nc(N[C@H]2CC[C@@H](NC(=O)c3cccc(Br)c3)CC2)nc(N(C)C)c1C [compound 2839, 3-bromo-N-(cis-4-{[4-(dimethylamino)-5,6-dimethylpyrimidin-2-yl]amino}cyclohexyl)benzamide]	1 (Class 1: The value of percent of control at 10^−7 M was less than 40% or the value of IC50 was less than 50 nM.)
